Patent publication US4708872A, “Antitumor antibiotic complex” (Bristol-Meyers Company, priority 1985, dated 1987)
Values joined by “and” are separate entries in the source; they are usually repeats but may differ in a detail not shown here. Equal values may be shown once. Read-outs that look alike come from different tables or passages of the source.

Columns and labels:
L-1210 leukemia [1] = conditions: days 1,4,7 iv; dose of preceding T/C line
L-1210 leukemia [2] = assay: Intravenously implanted L-1210 leukemia, iv treatment; conditions: days 1,4,7 iv
B16 melanoma = conditions: qd 1-9 ip; dose of preceding T/C line
Protocol: (§1) Lymphocytic leukemia P-388, lymphoid leukemia L-1210, melanotic melanoma B16 and Lewis lung carcinoma were implanted intraperitoneally into male BDF1 mice at an inoculum size of 10^6, 10^5, 5×10^5 and 10^6 cells per mouse, respectively. Graded doses of test compounds were administered to the mice intraperitoneally 24 hours after the tumor inoculation.
(§2) Death or survival of the treated and non-treated mice was recorded daily, and the median survival time (MST) was calculated for each of the test (T) and control (C) groups. […] Second experiments were carried out by intravenous administration of BBM-1675 components against P-388 and L-1210 leukemias, which were inoculated intravenously at 5×10^5 and 10^4 cells per mouse, respectively.

Protocol for Lewis lung carcinoma: as §1, §2

SMILES	MST (L-1210 leukemia [1]) [days]	MST (L-1210 leukemia [2]; 16 mg/kg/day)	Survivors on day 5 (L-1210 leukemia [2]; 16 mg/kg/day)	Survivors on day 45 (L-1210 leukemia [2]; 16 mg/kg/day)	MST (L-1210 leukemia [2]; dose of preceding T/C line)	Survivors on day 5 (L-1210 leukemia [2]; dose of preceding T/C line)	Survivors on day 5 (Lewis lung carcinoma; mouse, in vivo, ip)	Survivors on day 5 (Lewis lung carcinoma; qd 1-11 ip, dose of preceding T/C line)	Survivors on day 5 (B16 melanoma)
COc1cccc2c1C(=O)c1c(O)c3c(c(O)c1C2=O)C[C@@](O)(C(=O)CO)C[C@@H]3O[C@H]1C[C@H](N)[C@H](O)[C@H](C)O1 [Adriamycin, adriamycin]	9.0	tox.	2/6	0/6	12.0 days and 8.0 days	6/6			
CO[C@@H]1[C@H](O)C[C@@H](O[C@@H]2C[C@H](Oc3cc4cc5c(c(O)c4c(O)c3C)C(=O)[C@@H](O[C@H]3C[C@@H](O[C@H]4C[C@@H](O[C@H]6C[C@](C)(O)[C@@H](OC(C)=O)[C@H](C)O6)[C@H](O)[C@@H](C)O4)[C@H](O)[C@@H](C)O3)[C@H]([C@H](OC)C(=O)[C@@H](O)[C@@H](C)O)C5)O[C@H](C)[C@@H]2OC(C)=O)O[C@@H]1C [Chromomycin A3, chromomycin A3]							5/5	6/6	6/6
